Laboratory results: ChEMBL document CHEMBL5032495, “Discovery of Novel Tacrine-Pyrimidone Hybrids as Potent Dual AChE/GSK-3 Inhibitors for the Treatment of Alzheimer's Disease” (J Med Chem, 2021)
Activity calls are given as the source filed them. The calls are words filed in the database; no cut-off is given here.

Tests used:
[1] = Drug concentration in ICR mouse brain at 15 mg/kg, ip measured after 0.5 hrs by UPLC-MS/MS analysis; format: ADME, organism-based; details: read-out: Drug uptake
[2] = target: T1, Glycogen synthase kinase-3 beta (Homo sapiens, UniProt P49841); experiment: Inhibition of GSK-3beta (unknown origin) at 1000 nM
Target sequence in this assay (P49841 whole entry, looked up): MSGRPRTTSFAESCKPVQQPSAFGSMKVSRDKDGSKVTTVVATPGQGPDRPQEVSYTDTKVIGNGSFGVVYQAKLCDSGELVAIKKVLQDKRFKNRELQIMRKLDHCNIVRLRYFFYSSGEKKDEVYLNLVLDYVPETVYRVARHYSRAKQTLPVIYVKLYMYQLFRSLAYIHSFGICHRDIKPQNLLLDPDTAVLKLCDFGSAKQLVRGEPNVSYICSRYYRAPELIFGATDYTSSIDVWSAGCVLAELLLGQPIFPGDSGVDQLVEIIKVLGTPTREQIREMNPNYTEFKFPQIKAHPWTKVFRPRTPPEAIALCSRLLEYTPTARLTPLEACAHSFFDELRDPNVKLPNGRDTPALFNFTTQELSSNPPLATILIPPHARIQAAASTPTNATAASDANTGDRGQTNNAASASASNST

[3] = target: T1, Glycogen synthase kinase-3 beta; experiment: Inhibition of GSK-3beta in glyceraldehyde-treated human SH-SY5Y cells assessed as reduction in phosphorylated Tau levels at S396 site measured after 24 hrs by ELISA
Target sequence in this assay (P49841 whole entry, looked up): as above

[4] = Apparent oral clearance in ICR mouse at 5 mg/kg measured upto 24 hrs by UPLC-MS/MS analysis; format: ADME, organism-based; details: in vivo
[5] = Drug concentration in ICR mouse brain at 15 mg/kg, ip measured after 4 hrs by UPLC-MS/MS analysis; format: ADME, organism-based; details: read-out: Drug uptake
[6] = Apparent oral clearance in ICR mouse at 15 mg/kg measured upto 24 hrs by UPLC-MS/MS analysis; format: ADME, organism-based; details: in vivo
[7] = Bioavailability in ICR mouse at 15 mg/kg, ip measured upto 24 hrs by UPLC-MS/MS analysis; format: ADME, organism-based; details: in vivo
[8] = AUClast in ICR mouse at 5 mg/kg, iv measured upto 24 hrs by UPLC-MS/MS analysis; format: ADME, organism-based; parameters: route intravenous, dose 5 mg/kg, time <=24; details: in vivo
[9] = Ratio of drug concentration in brain to plasma in ICR mouse at 15 mg/kg, ip measured after 4 hrs by UPLC-MS/MS analysis; format: ADME, organism-based
[10] = Toxicity in ICR mouse assessed as emesis at 15 mg/kg, ip measured after 15 days; format: organism-based; details: in vivo, 360 h, time 15 day
[11] = target: T1, Glycogen synthase kinase-3 beta; experiment: Inhibition of GSK-3beta in glyceraldehyde-treated human SH-SY5Y cells assessed as reduction in phosphorylated Tau levels at S199 site measured after 24 hrs by ELISA
Target sequence in this assay (P49841 whole entry, looked up): as above

[12] = AUClast in ICR mouse at 15 mg/kg, ip measured upto 24 hrs by UPLC-MS/MS analysis; format: ADME, organism-based; parameters: route intraperitoneal, dose 15 mg/kg, time <=24; details: in vivo
[13] = Volume of distribution in ICR mouse at 5 mg/kg, iv measured upto 24 hrs by UPLC-MS/MS analysis; format: ADME, organism-based; details: in vivo
[14] = Half life in ICR mouse at 15 mg/kg, ip measured upto 24 hrs by UPLC-MS/MS analysis; format: ADME, organism-based; details: in vivo
[15] = MRTlast in ICR mouse at 15 mg/kg, ip measured upto 24 hrs by UPLC-MS/MS analysis; format: ADME, organism-based; details: in vivo
[16] = target: Glycogen synthase kinase-3 alpha (Homo sapiens) (UniProt P49840); experiment: Inhibition of GSK-3alpha (unknown origin) at 1000 nM
[17] = Ratio of drug concentration in brain to plasma in ICR mouse at 15 mg/kg, ip measured after 2 hrs by UPLC-MS/MS analysis; format: ADME, organism-based
[18] = Drug concentration in ICR mouse brain at 15 mg/kg, ip measured after 1 hr by UPLC-MS/MS analysis; format: ADME, organism-based; details: read-out: Drug uptake
[19] = MRTlast in ICR mouse at 5 mg/kg, iv measured upto 24 hrs by UPLC-MS/MS analysis; format: ADME, organism-based; details: in vivo
[20] = Ratio of drug concentration in brain to plasma in ICR mouse at 15 mg/kg, ip measured after 1 hr by UPLC-MS/MS analysis; format: ADME, organism-based
[21] = Tmax in ICR mouse at 15 mg/kg, ip measured upto 24 hrs by UPLC-MS/MS analysis; format: ADME, organism-based; details: in vivo
[22] = Toxicity in ICR mouse assessed as diarrhea at 15 mg/kg, ip measured after 15 days; format: organism-based; details: in vivo, 360 h, time 15 day
[23] = Toxicity in ICR mouse assessed as swimming motility impairment at 15 mg/kg, ip measured after 15 days; format: organism-based; details: in vivo, 360 h, time 15 day
Acetylcholinesterase = target: T2, Acetylcholinesterase (Mus musculus, UniProt P21836); experiment: Inhibition of mouse AChE using acetylthiocholine iodide as substrate incubated for 20 mins by Ellman's method
T2 sequence (P21836 whole entry): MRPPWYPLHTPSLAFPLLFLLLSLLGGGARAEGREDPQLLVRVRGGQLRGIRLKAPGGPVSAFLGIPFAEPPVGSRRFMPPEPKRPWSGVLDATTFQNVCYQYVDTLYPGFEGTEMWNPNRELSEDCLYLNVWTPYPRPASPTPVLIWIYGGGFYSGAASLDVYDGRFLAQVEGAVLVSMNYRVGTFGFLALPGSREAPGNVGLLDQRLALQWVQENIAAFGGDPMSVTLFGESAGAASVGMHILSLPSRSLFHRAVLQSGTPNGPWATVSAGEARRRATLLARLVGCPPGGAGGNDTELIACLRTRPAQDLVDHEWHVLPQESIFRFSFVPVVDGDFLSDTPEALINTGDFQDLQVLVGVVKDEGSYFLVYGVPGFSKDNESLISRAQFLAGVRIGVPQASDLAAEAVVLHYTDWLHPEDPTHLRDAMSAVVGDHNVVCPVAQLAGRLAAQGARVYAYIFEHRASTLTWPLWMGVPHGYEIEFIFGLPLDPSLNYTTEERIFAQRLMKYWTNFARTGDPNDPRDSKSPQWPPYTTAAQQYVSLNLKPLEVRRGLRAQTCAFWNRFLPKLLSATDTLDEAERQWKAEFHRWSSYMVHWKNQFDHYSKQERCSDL

[24] = Cmax in ICR mouse at 15 mg/kg, ip measured upto 24 hrs by UPLC-MS/MS analysis; format: ADME, organism-based; parameters: route intraperitoneal, dose 15 mg/kg, time <=24; details: in vivo
[25] = Drug concentration in ICR mouse plasma at 15 mg/kg, ip measured after 4 hrs by UPLC-MS/MS analysis; format: ADME, organism-based
[26] = Drug concentration in ICR mouse plasma at 15 mg/kg, ip measured after 1 hr by UPLC-MS/MS analysis; format: ADME, organism-based
[27] = Cmax in ICR mouse at 5 mg/kg, iv measured upto 24 hrs by UPLC-MS/MS analysis; format: ADME, organism-based; parameters: route intravenous, dose 5 mg/kg, time <=24; details: in vivo
SH-SY5Y [28] = experiment: Neuroprotective activity in human SH-SY5Y cells assessed as prevention of glyceraldehyde-induced neurite shortening at 0.5 to 5 uM incubated for 1 hr by confocal microsocopic analysis; format: functional, cell-based; details: dose 0.5-5 µM
[29] = Drug concentration in ICR mouse brain at 15 mg/kg, ip measured after 2 hrs by UPLC-MS/MS analysis; format: ADME, organism-based; details: read-out: Drug uptake
[30] = Volume of distribution in ICR mouse at 15 mg/kg, ip measured upto 24 hrs by UPLC-MS/MS analysis; format: ADME, organism-based; details: in vivo
[31] = Ratio of drug concentration in brain to plasma in ICR mouse at 15 mg/kg, ip measured after 0.5 hrs by UPLC-MS/MS analysis; format: ADME, organism-based
[32] = target: T1, Glycogen synthase kinase-3 beta
Target sequence in this assay (P49841 whole entry): as the sequence (P49841 whole entry, looked up) above
Description: Inhibition of human recombinant GSK-3beta using prephosphorylated polypeptide as substrate incubated for 30 mins in presence of ATP by Kinase-Glo luminescence assay

SH-SY5Y [33] = experiment: Neuroprotective activity against glyceraldehyde-induced neurotoxicity in human SH-SY5Y cells assessed as increase in cell viability at 0.5 to 5 uM incubated for 24 hrs by MTT assay; format: functional, cell-based; details: dose 0.5-5 µM
[34] = Tmax in ICR mouse at 5 mg/kg, iv measured upto 24 hrs by UPLC-MS/MS analysis; format: ADME, organism-based; details: in vivo
[35] = Drug concentration in ICR mouse plasma at 15 mg/kg, ip measured after 0.5 hrs by UPLC-MS/MS analysis; format: ADME, organism-based
[36] = Half life in ICR mouse at 5 mg/kg, iv measured upto 24 hrs by UPLC-MS/MS analysis; format: ADME, organism-based; details: in vivo
[37] = Drug concentration in ICR mouse plasma at 15 mg/kg, ip measured after 2 hrs by UPLC-MS/MS analysis; format: ADME, organism-based

Chain of Glycogen synthase kinase-3 alpha (Homo sapiens) (P49840 2-483 limits assumed): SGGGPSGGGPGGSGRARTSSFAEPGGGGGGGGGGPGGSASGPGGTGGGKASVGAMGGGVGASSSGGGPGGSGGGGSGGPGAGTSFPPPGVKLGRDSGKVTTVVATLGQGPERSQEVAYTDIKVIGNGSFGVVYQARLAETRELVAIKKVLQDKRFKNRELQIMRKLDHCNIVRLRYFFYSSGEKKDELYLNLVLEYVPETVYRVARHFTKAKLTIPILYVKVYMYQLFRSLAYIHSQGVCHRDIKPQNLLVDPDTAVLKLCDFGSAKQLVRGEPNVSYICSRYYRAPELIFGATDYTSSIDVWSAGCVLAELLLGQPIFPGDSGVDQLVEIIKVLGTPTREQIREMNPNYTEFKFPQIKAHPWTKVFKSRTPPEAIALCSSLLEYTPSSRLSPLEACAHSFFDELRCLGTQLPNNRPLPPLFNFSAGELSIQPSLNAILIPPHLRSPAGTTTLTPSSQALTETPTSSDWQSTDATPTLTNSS

In the case of `Cn1c(NCCCCCCCNc2c3c(nc4cc(Cl)ccc24)CCCC3)nc(-c2ccncc2F)cc1=O`, the concentration at 0.5 h [1] is reported as 23.6 ng/g, the inhibition [2] is reported as “Active” and the inhibition [3] is reported as “Dose-Dependent Effect”. It also gave a CL/F [4] of 0.0513 mL/min/kg, a concentration at 4 h [5] of 5.99 ng/g and a CL/F [6] of 0.152 mL/min/kg. For the same molecule, the bioavailability [7] was 35.3%, the AUC(0-t) at 24 h [8] was 1560 ng·h/mL and the Kp at 4 h [9] was 1.92. For the same molecule, the Activity [10] was “Non-Toxic”, the inhibition [11] was “Dose-Dependent Effect” and the AUC(0-t) at 24 h [12] was 1660 ng·h/mL. It also gave a Vd [13] of 16.4 L/kg, a half-life [14] of 69 min and an MRT last at 24 h [15] of 46.8 min. The inhibition [16] was “Active”, the Kp at 2 h [17] was 0.522 and the concentration at 1 h [18] was 11.1 ng/g. For the same molecule, the MRT last at 24 h [19] was 183 min, the Kp at 1 h [20] was 0.148 and the Tmax [21] was 8.34 min. The Activity [22] was “Non-Toxic”, the Activity [23] was “Non-Toxic” and the IC50 (Acetylcholinesterase) was 51.1 µM. For the same molecule, the Cmax [24] was 1870 ng/mL, the concentration at 4 h [25] was 3.47 ng/mL and the concentration at 1 h [26] was 76.8 ng/mL. The Cmax [27] was 2810 ng/mL, the Activity (SH-SY5Y [28]) was “Dose-Dependent Effect” and the concentration at 2 h [29] was 12.2 ng/g. For the same molecule, the Vd [30] was 14.14 L/kg, the Kp at 0.5 h [31] was 0.028 and the IC50 [32] was 89.3 µM. For the same molecule, the Activity (SH-SY5Y [33]) was “Active”, the Tmax [34] was 1.98 min and the concentration at 0.5 h [35] was 866 ng/mL. The half-life [36] was 219 min and the concentration at 2 h [37] was 26.8 ng/mL.
